Read-outs that look alike come from different tables or passages of the source.
Target: T1, human C-terminal DNMT3A (623-908a.a.) (Homo sapiens, UniProt Q9Y6K1)
T1 construct: The human C-terminal DNMT3A (623-908a.a.); made in house
Assay: hDNMT3A assay (restriction-based fluorescence assay)
Format: biochemical
Conditions: for inhibition at 10 µM: read-out: hDNMT 3A inhibition, Inhibition (%) 10 μM; for inhibition at 32 µM: read-out: hDNMT 3A inhibition, Inhibition (%) 32 μM
From the text: hDNMT3A enzyme inhibition was adapted from the restriction-based fluorescence assay protocol as described in the literature (Ceccaldi et al. Chem Bio Chem 2011, 12, 1337-1345). Briefly, a 5′-labelled biotin oligonucleotide is hybridized to its complementary strand labelled with 6-carboxyfluorescein at the 3′-end into a 384 well microplate (black Optiplates; Perkin Elmer) pre-coated with avidin. The duplex contains a unique CpG site overlapping with a restriction site of a methylation sensitive restriction enzyme. The human C-terminal DNMT3A (623-908a.a.), produced as described in (Gros et al. Nucl. Acids Res. 2013, 41(19):e185), was added in each well (200 ng/well) and mixed with the chemical compounds at desired concentrations and freshly prepared SAM (20 μM final concentration) to start the reaction in a total volume of 50 μL. After 1 hour incubation at 37° C. each well were washed three times with PBS, Tween-20 0.05%, NaCl (500 mM) and three more times with PBST. Specific fluorescent signals were detected with the methylation-sensitive restriction enzyme HpyCH4IV (NEB) as described and measured on a Perkin Elmer Envision detector. The percentage of inhibition is reported. The formula used to calculate the percentage of inhibition is [(X−Y)/X]×100, where X is the signal determined in the absence of the inhibitor and Y is the signal obtained in the presence of the inhibitor. The concentration at which 50% of efficacy of inhibition is observed (EC50) was determined by analysis of a concentration range of the tested compound in triplicates. The non-linear regression fittings with sigmoidal dose-response (variable slope) were performed with GraphPad Prism 4.03 (GraphPad Software).

[1] = concentration at which 50% of efficacy of inhibition is observed, read-out: EC50 (μM), hDNMT 3A inhibition
[2] = interval line below the EC50 of the same compound, read-out: EC50 (μM), range given

T1 sequence (Q9Y6K1 627-912 limits assumed): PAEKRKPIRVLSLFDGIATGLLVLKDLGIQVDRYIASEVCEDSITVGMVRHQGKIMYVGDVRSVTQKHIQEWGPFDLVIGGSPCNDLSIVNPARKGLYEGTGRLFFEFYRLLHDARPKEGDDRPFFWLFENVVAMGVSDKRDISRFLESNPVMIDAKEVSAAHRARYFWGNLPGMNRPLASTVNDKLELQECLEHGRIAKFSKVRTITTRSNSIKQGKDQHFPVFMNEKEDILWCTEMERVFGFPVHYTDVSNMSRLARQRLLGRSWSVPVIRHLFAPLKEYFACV

inhibition at 10 µM [%] | inhibition at 32 µM [%] | EC50 [1] [µM] | EC50 [2] [µM] | Compound
17 | 72 |  |  | COc1ccc2cc1Oc1ccc(cc1)CC1c3c(cc(OC)c4c3Oc3cc5c(cc3O4)CCN(C)[C@H]5C2)CCN1C=O (stereo partly shown) [Product 10]
43 | 77 |  |  | COc1ccc2cc1Oc1ccc(cc1)C[C@H]1c3c(cc(OC)c4c3Oc3cc5c(cc3O4)CCN(C)[C@H]5C2)CCN1C(N)=O [Product 11]
78 | 93 | 2.67 to 3.8 |  | CCN(CC)CCCNC(=S)N1CCc2cc(OC)c3c4c2[C@@H]1Cc1ccc(cc1)Oc1cc(ccc1OC)C[C@H]1c2cc(c(cc2CCN1C)O3)O4 [Product 12]
39 | 45 |  |  | COc1ccc2cc1Oc1ccc(cc1)C[C@H]1c3c(cc(OC)c4c3Oc3cc5c(cc3O4)CCN(C)[C@H]5C2)CCN1S(C)(=O)=O [Product 13]
93 | 96 | 1.91 | 1.15 to 3.18 | CNC(=S)N1CCc2cc(OC)c3c4c2[C@@H]1Cc1ccc(cc1)Oc1cc(ccc1OC)C[C@H]1c2cc(c(cc2CCN1C)O3)O4 [Product 14]
46 | 50 |  |  | COc1ccc2cc1Oc1ccc(cc1)C[C@H]1c3c(cc(OC)c4c3Oc3cc5c(cc3O4)CCN(C)[C@H]5C2)CCN1C#N [Product 15]
56 | 77 |  |  | COc1ccc2cc1Oc1ccc(cc1)C[C@H]1c3c(cc(OC)c4c3Oc3cc5c(cc3O4)CCN(C)[C@H]5C2)CCN1CCC#N [Product 16]
69 | 79 |  |  | COc1ccc2cc1Oc1ccc(cc1)C[C@H]1c3c(cc(OC)c4c3Oc3cc5c(cc3O4)CCN(C)[C@H]5C2)CCN1CC#N [Product 17]
66 | 66 |  |  | COc1ccc2cc1Oc1ccc(cc1)C[C@H]1c3c(cc(OC)c4c3Oc3cc5c(cc3O4)CCN(C)[C@H]5C2)CCN1C(=O)OCCCCn1cnc2c(N)ncnc21 [Product 18]
67 | 71 |  |  | COc1ccc2cc1Oc1ccc(cc1)C[C@H]1c3c(cc(OC)c4c3Oc3cc5c(cc3O4)CCN(C)[C@H]5C2)CCN1C(=O)OCCCn1cnc2c(N)ncnc21 [Product 19]
50 | 66 |  |  | COc1ccc2cc1Oc1ccc(cc1)C[C@H]1c3c(cc(OC)c4c3Oc3cc5c(cc3O4)CCN(CC#N)[C@H]5C2)CCN1C [Product 20]
32 | 82 |  |  | COc1ccc2cc1Oc1ccc(cc1)C[C@H]1c3c(cc(OC)c4c3Oc3cc5c(cc3O4)CCN(CC#N)[C@H]5C2)CCN1CC#N [Product 21]
60 | 64 |  |  | COc1ccc2cc1Oc1ccc(cc1)C[C@H]1c3c(cc(OC)c4c3Oc3cc5c(cc3O4)CCN(CCC#N)[C@H]5C2)CCN1C [Product 22]
42 | 77 |  |  | COc1ccc2cc1Oc1ccc(cc1)C[C@H]1c3c(cc(OC)c4c3Oc3cc5c(cc3O4)CCN(CCCn3cnc4c(N)ncnc43)[C@H]5C2)CCN1C [Product 24]
46 | 72 |  |  | COc1ccc2cc1Oc1ccc(cc1)C[C@H]1c3c(cc(OC)c4c3Oc3cc5c(cc3O4)CCN(CCCCn3cnc4c(N)ncnc43)[C@H]5C2)CCN1C [Product 25]
21 | 67 |  |  | COc1ccc2cc1Oc1ccc(cc1)C[C@H]1c3c(cc(OC)c4c3Oc3cc5c(cc3O4)CCN(C)[C@H]5C2)CCN1CCCCn1cnc2c(N)ncnc21 [Product 27]
18 | 60 |  |  | COc1ccc2cc1Oc1ccc(cc1)C[C@H]1c3c(cc(OC)c4c3Oc3cc5c(cc3O4)CCN(C)[C@H]5C2)CCN1CCCn1cnc2c(N)ncnc21 [Product 28]
66 | 88 | 4.19 to 9.36 |  | COc1ccc2cc1Oc1ccc(cc1)CC1c3c(cc(OC)c4c3Oc3cc5c(cc3O4)CCN(C)[C@H]5C2)CCN1C(=O)C1CCC(CN2C(=O)C=CC2=O)CC1 (stereo partly shown) [Product 30]
43 | 79 |  |  | C=CC(=O)N1CCc2cc(OC)c3c4c2C1Cc1ccc(cc1)Oc1cc(ccc1OC)C[C@H]1c2cc(c(cc2CCN1C)O3)O4 (stereo partly shown) [Product 31]
57 | 82 | 5.34 to 6.87 |  | COc1ccc2cc1Oc1ccc(cc1)CC1c3c(cc(OC)c4c3Oc3cc5c(cc3O4)CCN(C)[C@H]5C2)CCN1C(=O)CCCl (stereo partly shown) [Product 32]
32 | 87 |  |  | COc1ccc2cc1Oc1ccc(cc1)CC1c3c(cc(OC)c4c3Oc3cc5c(cc3O4)CCN(C)[C@H]5C2)CCN1C(=O)/C=C/CN(C)C (stereo partly shown) [Product 33]
24 | 49 |  |  | CNC(=O)N1CCc2cc3c4cc2[C@@H]1Cc1ccc(OC)c(c1)Oc1ccc(cc1)C[C@H]1c2c(cc(OC)c(c2O4)O3)CCN1C(=O)NC [Product 43]
31 | 73 |  |  | CNC(=O)N1CCc2cc3c4cc2[C@@H]1Cc1ccc(OC)c(c1)Oc1ccc(cc1)C[C@H]1c2c(cc(OC)c(c2O4)O3)CCN1C [Product 45]
7 | 52 |  |  | CNC(=S)N1CCc2cc3c4cc2[C@@H]1Cc1ccc(OC)c(c1)Oc1ccc(cc1)C[C@H]1c2c(cc(OC)c(c2O4)O3)CCN1C [Product 46]
10 | 40 |  |  | CNC(=S)N1CCc2cc3c4cc2[C@@H]1Cc1ccc(OC)c(c1)Oc1ccc(cc1)C[C@H]1c2c(cc(OC)c(c2O4)O3)CCN1C(=S)NC [Product 47]
60 | 75 | 6.1 | 3.72 to 10 | CCN(CC)CCCNC(=O)N1CCc2cc(OC)c3c4c2[C@@H]1Cc1ccc(cc1)Oc1cc(ccc1OC)C[C@H]1c2cc(c(cc2CCN1C)O3)O4 [Product 49]
69 | 91 | 2.06 | 1.28 to 3.31 | CCN(CC)CCCNC(=O)N1CCc2cc3c4cc2[C@@H]1Cc1ccc(OC)c(c1)Oc1ccc(cc1)C[C@H]1c2c(cc(OC)c(c2O4)O3)CCN1C [Product 50]
2 | 69 |  |  | CNC(=O)N1CCc2cc(OC)c3c4c2[C@@H]1Cc1ccc(cc1)Oc1cc(ccc1OC)C[C@@H]1NCCc2cc(c(cc21)O4)O3 [Product 51]
0 | 32 |  |  | COc1cc2c3c4c1Oc1cc5c(cc1O4)[C@H](Cc1ccc(OS(=O)(=O)C(F)(F)F)c(c1)Oc1ccc(cc1)C[C@@H]3N(C)CC2)N(C)CC5 [Product 54]

Source: US10544156B2, “Hemi-synthetic trilobine analogs for use as a drug” (PIERRE FABRE MEDICAMENT, priority 2015, dated 2020)
